Melting point data for 2 compounds are collected here from patent US10687532B2, “Substituted oxadiazoles for combating phytopathogenic fungi” (BASF SE, priority 2015, dated 2020).

For orientation: melting point means the temperature, or range, at which the solid turns liquid. In the case of `O=C(Nc1ccc(-c2noc(C(F)(F)F)n2)cc1)C1CCC1` [Ex-2, N-[4-[5-(trifluoromethyl)-1,2,4-oxadiazol-3-yl]phenyl]cyclobutanecarboxamide], the melting point stood at 183 °C.

Compound `CN(C(=O)C1CC1)c1ccc(-c2noc(C(F)(F)F)n2)cc1` [Ex-7, N-methyl-N-[4-[5-(trifluoromethyl)-1,2,4-oxadiazol-3-yl]phenyl]cyclopropanecarboxamide] yielded a melting point of 98 °C.
